{"source": "paper PMC3929365", "about": "“Benzimidazoisoquinolines: A New Class of Rapidly Metabolized Aryl Hydrocarbon Receptor (AhR) Ligands that Induce AhR-Dependent Tregs and Prevent Murine Graft-Versus-Host Disease” (PLoS ONE, 2014)", "key": {"activated T cells": {"test_system": "activated T cells", "experiment": "T cell proliferation in vitro (CFSE dilution, anti-CD3/anti-CD28)", "type": "cell-based, C57Bl/6 mice", "conditions": "100 nM, 72 h, anti-CD3 and anti-CD28", "protocol": "(§1) A. Splenocytes from C57Bl/6 mice were labeled with CFSE and activated in vitro with anti-CD3 and anti-CD28 in the presence of 100 nM 10-Cl-BBQ or DMSO for 72 h. B. C57Bl/6 donor T cells were labeled with CFSE and injected into B6D2F1 host mice to initiate the GVH response. Host mice (n = 5 per group) were treated with vehicle or 10-Cl-BBQ i.p. (10 mg/kg/d) for two days. Donor cells were identified by gating on CD4^+CFSE^+ cells. […] (TIF) Click here for additional data file."}, "AhR [1]": {"test_system": "AhR", "experimental": "The AhR reporter gene assay was performed as previously described (20–22).\nB) Hepa1 cells expressing endogenous AhR were transfected with a XRE-luciferase reporter gene. […] The mean luciferase activity is shown with SEM. C) Dose response curves for the competitive inhibition of [^3H] 3-MC binding to AhR.\n3-methylcholanthrene (3-MC) to AhR (Fig. 5C)."}, "[2]": {"experiment": "Serum liver chemistry profile", "type": "in vivo, B6D2F1 mice", "conditions": "10 mg/kg/day i.p., 2 days", "protocol": "Supplementary file pone.0088726.s004.docx: Table S1 Serum liver chemistry profile. B6D2F1 mice were give 10 mg/kg/day of 10-Cl-BBQ or vehicle i.p. After 2 days serum was collected and analyzed. n = 5 mice per treatment, average values are shown(± standard deviation). ALT – Alanine transaminase, SGPT – serum glutamic pyruvate transaminase. (DOCX) Click here for additional data file.\nTable S1. Serum liver chemistry profile. B6D2F1 mice were give 10 mg/kg/day of 10-Cl-BBQ or vehicle i.p. After 2 days serum was collected and analyzed. n = 5 mice per treatment, average values are shown(± standard deviation). ALT – Alanine transaminase, SGPT – serum glutamic pyruvate transaminase."}, "AhR [3]": {"test_system": "AhR", "experiment": "AhR-regulated (XRE) luciferase reporter gene assay in Hepa-1 cells", "type": "cell-based, mouse", "conditions": "nanomolar concentrations, 12 h, Hepa-1 cells", "protocol": "Figure 1 10-Cl-BBQ is a potent AhR ligand. A) Structure of 10-Cl-BBQ. […] C) Hepa-1 cells expressing endogenous AhR were transfected with an AhR-regulated luciferase reporter gene (xenobiotic responsive element (XRE)-MMTVpromoter-Luc) and the reporter gene activity was measured after 12 h of treatment with 1 nM TCDD or the indicated concentrations of 10-Cl-BBQ. D) Alteration in proteolytic pattern of AhR by 10-Cl-BBQ. Whole cell lysate (45 µg of protein) from mouse hepatoma Hepa1c1c7 cells was incubated with 100 nM 10-Cl-BBQ or 0.1% DMSO for 1 h at RT and proteolyzed by 1 µg/ml subtilisin for 1, 2, 4, and 8 min at RT. Proteolytic cleavage products of AhR were analyzed by immunoblot. E) Electrophoretic mobility shift assay showing the ligand-stimulated binding of AhR to XRE. Whole cell lysate (18 µg of protein) from mouse hepatoma Hepa1c1c7 cells was incubated with 10 nM 10-Cl-BBQ or 0.1% DMSO for 2 h at room temperature and ^32P-labeled oligonucleotide containing XRE for 20 min at room temperature. The samples were electrophoresed on a native polyacrylamide gel and the signal was visualized by Phosphor Imager. Unlabeled competitor XRE or antibody (Ab) against AhR or Arnt was co-incubated with ^32P-labeled oligonucleotide.\nThe mean luciferase activity is shown with SEM. […] 3-MC binding to AhR."}, "CD4+ T cells": {"test_system": "CD4+ T cells", "experiment": "Donor CD4+ T cell proliferation in vivo (CFSE dilution) during the GVH response", "parameters": "species or system B6D2F1 host mice", "conditions": "10 mg/kg/d i.p. for two days", "protocol": "as §1"}}}
{"smiles": "O=c1c2cccc3cccc(c32)c2nc3ccc(Cl)cc3n12", "note": "[10-Cl-BBQ, 10-chloro-7H-benzimidazo[2,1-a]benzo[de]isoquinolin-7-one]", "values": [{"measurement": "proliferation of activated T cells in vitro", "setting": "activated T cells", "value": "did not inhibit proliferation"}, {"measurement": "IC50", "setting": "AhR [1]", "value": 2.6, "unit": "nM"}, {"measurement": "acute hepatic toxicity in mice", "setting": "[2]", "value": "nor did it induce acute hepatic toxicity"}, {"measurement": "ALT (SGPT)", "setting": "[2]; serum, mean (± SD), n = 5", "value": "34.4 (± 10.4) U/l"}, {"measurement": "Albumin", "setting": "[2]; serum, mean (± SD), n = 5", "value": "3.3 (± 0.1) g/dl"}, {"measurement": "Alkaline Phosphatase", "setting": "[2]; serum, mean (± SD), n = 5", "value": "51.4 (± 8.3) U/l"}, {"measurement": "Bilirubin", "setting": "[2]; serum, mean (± SD), n = 5", "value": "0.12 (± 0) mg/dl"}, {"measurement": "Blood Urea Nitrogen", "setting": "[2]; serum, mean (± SD), n = 5", "value": "10.2 (± 1.5) mg/dl"}, {"measurement": "Cholesterol", "setting": "[2]; serum, mean (± SD), n = 5", "value": "119.2 (± 10.4) mg/dl"}, {"measurement": "Glucose", "setting": "[2]; serum, mean (± SD), n = 5", "value": "201.2 (± 10.4) mg/dl"}, {"measurement": "Gamma Glutamyl Transferase", "setting": "[2]; serum, n = 5", "value": 0, "unit": "U/l"}, {"measurement": "activation of the AhR-regulated reporter gene", "setting": "AhR [3]", "value": "activated the AhR-regulated reporter gene"}, {"measurement": "proliferation of activated T cells in vivo", "setting": "CD4+ T cells", "value": "did not inhibit proliferation"}]}
